From PMC5478822, “In Vitro Anticancer Effect of Gedunin on Human Teratocarcinomal (NTERA-2) Cancer Stem-Like Cells” (BioMed Research International, 2017)
Converted amounts (≈) assume the structure as drawn. Read-outs that look alike come from different tables or passages of the source.

What was measured:
NTERA-2 cells [1] = assay: Sulforhodamine B (SRB) antiproliferative assay; type: cell-based; settings: Homo sapiens
Description: The NTERA-2 cells were cultured using Dulbecco's Modified Eagle's Medium (DMEM), supplemented with 10% fetal bovine serum (FBS), 50 IU/mL penicillin, and 50 μg/mL streptomycin. Cells were incubated at 37°C with 5% CO2 and 95% humidity.
Prior to the SRB assay, NTERA-2 cells were grown in a 75 cm[…] flasks. Upon confluency, cells were trypsinized and seeded into 96-well plates (5 × 10^3 cells/well). After 24 h incubation, cells were treated with various concentrations (3.125, 6.25, 12.5, 25, and 50 μg/mL) of gedunin and retinoic acid (positive control) dissolved in 0.1% dimethyl sulfoxide (DMSO) and incubated for 24, 48, and 72 h. Negative control for the experiment was 0.1% DMSO in DMEM medium. Then the cells were fixed with 20 μL of 50% (trichloroacetic acid) TCA and incubated for further 1 h at 4°C. After incubation, cells were washed five times with tap water and stained with 50 μL of 0.4% (w/v) SRB solution. After 20 min of incubation, SRB solution was poured off and unbound dye was removed by washing five times with 1% acetic acid. Bound SRB dye was then solubilized by adding 100 μL of Tris base solution. The plates were shaken for 1 h and absorbance was read at 540 nm OD.

[2] = test system: peripheral blood mononuclear cells; assay: WST-1 cell viability assay; type: cell-based, human; settings: for IC50: Homo sapiens, PBMC, PBMCs, WST-1 assay; for Cytotoxic effect on normal peripheral blood mononuclear cells: WST-1 cell viability assay
Description: Cytotoxic effects of gedunin and positive control (retinoic acid) on normal human cells were evaluated by using human peripheral blood mononuclear cells. Collected blood was diluted with Hank's Buffered Salt Solution (HBSS) and layered onto Histopaque 1077. Blood was then centrifuged at 1000 rpm for 10 min. After centrifugation, opaque interface which contains mononuclear cells was seperated and washed with phosphate buffered saline (PBS). Cells were then counted and cultured (2 × 10^5 cells/mL) in RPMI medium supplemented with 10% fetal bovine serum (FBS), 50 IU/mL penicillin, and 50 μg/mL streptomycin in 24-well plates. Cells were then treated with different concentrations of gedunin and retinoic acid dissolved in 0.1% DMSO (3.125, 6.25, 12.5, 25, and 50 μg/mL) and incubated for 24, 48, and 72 h. Negative control for the experiment was 0.1% DMSO in RPMI medium. WST-1 cell proliferation assay was then carried out according to manufacturer's instructions to determine the cytotoxic effects.

NTERA-2 cells [3] = assay: Acridine orange/ethidium bromide (AO/EB) staining; type: cell-based, human; settings: NTERA-2 cells, 2.5, 5 and 10 μg/mL, 24 h
Description: NTERA-2 cells (2.5 × 10^4 cells/mL) were cultured on cell culture treated coverslips and incubated for 24 h. Subsequently, cells were exposed to different concentrations of gedunin dissolved in 0.1% DMSO (2.5, 5, and 10 μg/mL) and incubated for 24 h. Negative control for the experiment was 0.1% DMSO in DMEM medium. After incubation, cells were fixed using 4% formaldehyde in the dark for 10 min. Cells were then washed with PBS and stained with ethidium bromide (100 μg/mL) and acridine orange (100 μg/mL) solutions (1 : 1 v/v). Excess dye was then washed off with PBS and cell morphology was observed using a fluorescence microscope (BX51 TRF, Olympus Corporation, Tokyo, Japan).

[4] = test system: caspase 3/7 in NTERA-2 cells; assay: Caspase 3/7 assay; type: cell-based, human; settings: 24 h
Description: NTERA-2 cells (2.5 × 10^4 cells/mL) were cultured in 96-well cell culture plates and incubated for 24 h. After incubation, cells were treated with gedunin dissolved in 0.1% DMSO (2.5, 5, and 10 μg/mL) and incubated for further 24 h. Negative control for the experiment was 0.1% DMSO in DMEM medium. Caspase 3/7 reagent (100 μL) was then added to each well and incubated for 1 h in dark at 37°C. Luminescence of each well was measured by a plate reader.

NTERA-2 cells [5] = assay: DNA fragmentation analysis; type: cell-based, human; settings: 48 and 72 h, gedunin 5, 10 and 15 μg/mL
Description: DNA fragmentation analysis was carried out according to previously described methods. NTERA-2 cells (2.5 × 10^4 cells/mL) were grown in cell culture flasks and incubated for 24 h. After incubation, flasks were treated with gedunin dissolved in 0.1% DMSO (5, 10, and 15 μg/mL) and further incubated for 48 and 72 h. Negative control for the experiment was 0.1% DMSO in DMEM medium. At the end of the incubation period, cells were trypsinized and cell pellets were obtained. Cell pellets were then incubated for 60 min at 50°C in a 100 μL of lysis buffer (100 mM Tris–HCl, pH 8, 100 mM NaCl, and 10 mM EDTA). Proteinase K (10 μL, 20 mg/mL) was then added to cell lysates and incubated for 30 min at 50°C. After adding 3 μL of 10 mg/mL RNase, the mixture was incubated for 2 h at 50°C. DNA was extracted in phenol chloroform-isoamyl alcohol and 1 μg of isolated DNA from each sample was subjected to 2.0% of agarose gel electrophoresis and visualized under UV using a gel-doc system (Quantum-ST4 1100/20 M).

NTERA-2 cells [6] = assay: TUNEL assay; type: cell-based, human; settings: NTERA-2 cells, 2.5, 5 and 10 μg/mL, 24 h
Description: Terminal deoxynucleotidyl transferase-mediated dUTP-biotin nick-end labeling (TUNEL) staining was carried out to confirm in situ chromatin fragmentation. Cells cultured on coverslips (2.5 × 10^4 cells/mL) were treated with different concentrations of gedunin dissolved in 0.1% DMSO (2.5, 5, and 10 μg/mL) and incubated for 24 h. Negative control for the experiment was 0.1% DMSO in DMEM medium. TUNEL staining was carried out according to manufacturer's instructions. Briefly, cells were fixed with 4% formaldehyde and permeabilized with 0.2% Triton X-100. Equilibration buffer (100 μL) and TdT reaction mix to label DNA were added and incubated for further 60 min in a humidified chamber. Then coverslips were immersed in 2x SSC buffer for 15 min followed by immersing in 0.3% H2O2 for 3 min. Finally, labeled fragments were incubated with streptavidin horseradish peroxidase and visualized after diaminobenzidine (DAB) color development where dark brown spots confirmed apoptosis.

NTERA-2 cells [7] = assay: Nitrobluetetrazolium reactive oxygen species (ROS) assay; type: cell-based, human; settings: 24 h after incubation, 2.5, 5 and 10 μg/mL
Description: ROS measurement in gedunin treated NTERA-2 cells was carried out using previously described methods. Cells (2 × 10^3) were cultured in 96-well cell culture plates and incubated for 24 h. After incubation cells were treated with gedunin (2.5, 5, and 10 μg/mL) and incubated for further 24 h. Cells were then incubated with nitrobluetetrazolium (1 mg/mL) for 1 h at 37°C. After the incubation 100 μL of DMSO was added to solubilize blue formazan, plates were shaken for 10 min at room temperature, and the absorbance was read at 620 nm.

p53 = assay: RT-qPCR gene expression, p53; type: cell-based, human; settings: NTERA-2 cells, 5 and 10 μg/mL, 24 h
Description: (§1) NTERA-2 (2.5 × 10^5 cells/mL) cells were cultured in cell culture flasks and treated with gedunin dissolved in 0.1% DMSO (5 and 10 μg/mL) for 24 h. Negative control for the experiment was 0.1% DMSO in DMEM medium. Following incubation, total RNA was extracted with TRIzol® reagent according to the manufacturer's instructions. For reverse transcription, extracted RNA (2 μg) was mixed with 50 ng of random primers and the total volume was made up to 13.5 μL with ultrapure water. Resulting mixture was incubated at 70°C for 5 min and, after incubation, it was kept on ice for 2 min. Complementary DNA (cDNA) was then synthesized by adding 2 μL from the transcription mixture, 5 μL of 5x MMLV-buffer, 5 μL of 10 mM deoxynucleotide mixture, 25 units of RNasin, and 200 units of MMLV-reverse transcriptase in a reaction mixture of 25 μL adjusted by adding ultrapure water and incubated at 37°C for 60 min. Real-time PCR was carried out in Stratagene Mx3000P using a master mix containing SYBR green (MESA Green qPCR Master Mix Plus for SYBR Assay). Primers used for real-time PCR are given in Table 1 and glyceraldehyde-3-phosphate dehydrogenase (GAPDH) was used as the internal housekeeping gene. […] Results of real-time PCR were analysed using the formula 2^−ΔΔCt.

Bax = assay: RT-qPCR gene expression, Bax; type: cell-based, human; settings: NTERA-2 cells, both doses tested, 24 h
Description: as §1

survivin = assay: RT-qPCR gene expression, survivin; type: cell-based, human; settings: NTERA-2 cells, both doses tested, 24 h
Description: as §1

HSP90 = assay: RT-qPCR gene expression, HSP90; type: cell-based, human; settings: NTERA-2 cells, 5 and 10 μg/mL, 24 h
Description: as §1

Cdc37 = assay: RT-qPCR gene expression, Cdc37; type: cell-based, human; settings: NTERA-2 cells, 5 and 10 μg/mL, 24 h
Description: as §1

ErbB2 = assay: RT-qPCR gene expression, ErbB2; type: cell-based, human; settings: NTERA-2 cells, 24 h incubation
Description: as §1

HSF1 = assay: RT-qPCR gene expression, HSF1; type: cell-based, human; settings: NTERA-2 cells, 24 h incubation
Description: as §1

AKT = assay: RT-qPCR gene expression, AKT; type: cell-based, human; settings: NTERA-2 cells, 24 h incubation
Description: as §1

[8] = NTERA2, 24 h incubation, read-out: IC50 in NTERA-2 cells, 24 h
[9] = NTERA2, 48 h incubation, read-out: IC50 in NTERA-2 cells, 48 h
[10] = NTERA2, 72 h incubation, read-out: IC50 in NTERA-2 cells, 72 h
[11] = 24 h incubation, read-out: IC50 in peripheral blood mononuclear cells, 24 h
[12] = 48 h incubation, read-out: IC50 in peripheral blood mononuclear cells, 48 h
[13] = 72 h incubation, read-out: IC50 in peripheral blood mononuclear cells, 72 h

## CC(=O)O[C@@H]1C[C@H]2C(C)(C)C(=O)C=C[C@]2(C)[C@H]2CC[C@@]3(C)[C@H](c4ccoc4)OC(=O)[C@H]4O[C@]43[C@@]21C [Gedunin]
NTERA-2 cells [1]; [8]
  IC50: 14.6 µg/mL (≈ 30.2 µM)
NTERA-2 cells [1]; [9]
  IC50: 8.49 µg/mL (≈ 17.6 µM)
NTERA-2 cells [1]; [10]
  IC50: 6.55 µg/mL (≈ 13.6 µM)
[2]; [11]
  IC50: > 100 µg/mL
[2]; [12]
  IC50: > 100 µg/mL
[2]; [13]
  IC50: > 100 µg/mL
[2]
  Cytotoxic effect on normal peripheral blood mononuclear cells: minimal effect on PBMCs
[2]; listed as gedunin
  Cytotoxic effect on normal peripheral blood mononuclear cells: not significant
NTERA-2 cells [3]
  Morphological changes after AO/EB staining: morphological changes of apoptosis
[4]; 2.5 μg/mL
  Fold change in caspase 3/7 activity: 1.08 fold
[4]; 5 μg/mL
  Fold change in caspase 3/7 activity: 1.2 fold
[4]; 10 μg/mL
  Fold change in caspase 3/7 activity: 1.41 fold
NTERA-2 cells [5]
  DNA fragmentation (laddering pattern): smeared laddering pattern of DNA was observed
NTERA-2 cells [6]
  TUNEL-positive nuclei: increase in the number of TUNEL-positive nuclei
NTERA-2 cells [7]
  ROS production: increase in ROS production
p53
  Expression of p53 (real-time PCR): upregulation of p53
Bax
  Expression of Bax (real-time PCR): Upregulation of Bax
survivin
  Expression of survivin (real-time PCR): downregulation
HSP90
  Expression of HSP90 (real-time PCR): downregulation
Cdc37
  Expression of Cdc37 (real-time PCR): downregulation
ErbB2
  Expression of ErbB2 (real-time PCR): Significant downregulation
HSF1
  Expression of HSF1 (real-time PCR): Significant downregulation
AKT
  Expression of AKT (real-time PCR): Significant downregulation

## CC1=CC(=O)C(C(C)C)=CC1=O [thymoquinone]
NTERA-2 cells [5]
  DNA fragmentation (laddering pattern): smeared laddering pattern of DNA was observed

## CC1=C(/C=C/C(C)=C/C=C/C(C)=C/C(=O)O)C(C)(C)CCC1 [Retinoic acid, retinoic acid, reference compound]
NTERA-2 cells [1]; [8]
  IC50: 14.4 µg/mL (≈ 47.8 µM)
NTERA-2 cells [1]; [9]
  IC50: 9.17 µg/mL (≈ 30.5 µM)
NTERA-2 cells [1]; [10]
  IC50: 6.87 µg/mL (≈ 22.9 µM)
[2]; [11]
  IC50: > 100 µg/mL
[2]; [12]
  IC50: > 100 µg/mL
[2]; [13]
  IC50: > 100 µg/mL
NTERA-2 cells [5]
  DNA fragmentation (laddering pattern): smeared laddering pattern of DNA was observed
